pEC50: −log10 of the molar value.

The target of one assay is T1, hT1R2/hT1R3 (Homo sapiens, UniProt Q7RTX0+Q8TE23).
T1 construct: expressed in transfected cells; parental cells lack the receptor
T1 sequence (Q8TE23 20-839): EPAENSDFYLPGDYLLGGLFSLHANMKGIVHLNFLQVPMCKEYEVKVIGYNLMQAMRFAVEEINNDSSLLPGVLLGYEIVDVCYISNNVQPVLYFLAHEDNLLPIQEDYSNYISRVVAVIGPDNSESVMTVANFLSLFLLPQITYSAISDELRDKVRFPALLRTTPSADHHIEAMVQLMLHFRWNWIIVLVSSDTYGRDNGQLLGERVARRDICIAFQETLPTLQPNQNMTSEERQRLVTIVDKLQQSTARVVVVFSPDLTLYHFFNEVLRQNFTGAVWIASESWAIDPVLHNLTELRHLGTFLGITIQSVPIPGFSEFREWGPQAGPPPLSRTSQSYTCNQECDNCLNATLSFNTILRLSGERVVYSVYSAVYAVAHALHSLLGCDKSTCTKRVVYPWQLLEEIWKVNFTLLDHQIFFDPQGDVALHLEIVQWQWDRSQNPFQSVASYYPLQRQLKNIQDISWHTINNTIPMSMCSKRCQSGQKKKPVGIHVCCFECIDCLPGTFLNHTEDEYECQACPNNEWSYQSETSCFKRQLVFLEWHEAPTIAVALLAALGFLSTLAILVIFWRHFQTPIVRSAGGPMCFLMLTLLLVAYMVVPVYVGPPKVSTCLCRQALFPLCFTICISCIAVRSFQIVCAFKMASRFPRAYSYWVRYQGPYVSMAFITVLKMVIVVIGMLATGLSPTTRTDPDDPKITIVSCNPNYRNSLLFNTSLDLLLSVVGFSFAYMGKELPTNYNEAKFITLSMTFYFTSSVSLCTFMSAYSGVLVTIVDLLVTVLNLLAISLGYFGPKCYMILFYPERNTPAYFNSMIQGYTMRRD
T1 sequence (Q7RTX0 21-852): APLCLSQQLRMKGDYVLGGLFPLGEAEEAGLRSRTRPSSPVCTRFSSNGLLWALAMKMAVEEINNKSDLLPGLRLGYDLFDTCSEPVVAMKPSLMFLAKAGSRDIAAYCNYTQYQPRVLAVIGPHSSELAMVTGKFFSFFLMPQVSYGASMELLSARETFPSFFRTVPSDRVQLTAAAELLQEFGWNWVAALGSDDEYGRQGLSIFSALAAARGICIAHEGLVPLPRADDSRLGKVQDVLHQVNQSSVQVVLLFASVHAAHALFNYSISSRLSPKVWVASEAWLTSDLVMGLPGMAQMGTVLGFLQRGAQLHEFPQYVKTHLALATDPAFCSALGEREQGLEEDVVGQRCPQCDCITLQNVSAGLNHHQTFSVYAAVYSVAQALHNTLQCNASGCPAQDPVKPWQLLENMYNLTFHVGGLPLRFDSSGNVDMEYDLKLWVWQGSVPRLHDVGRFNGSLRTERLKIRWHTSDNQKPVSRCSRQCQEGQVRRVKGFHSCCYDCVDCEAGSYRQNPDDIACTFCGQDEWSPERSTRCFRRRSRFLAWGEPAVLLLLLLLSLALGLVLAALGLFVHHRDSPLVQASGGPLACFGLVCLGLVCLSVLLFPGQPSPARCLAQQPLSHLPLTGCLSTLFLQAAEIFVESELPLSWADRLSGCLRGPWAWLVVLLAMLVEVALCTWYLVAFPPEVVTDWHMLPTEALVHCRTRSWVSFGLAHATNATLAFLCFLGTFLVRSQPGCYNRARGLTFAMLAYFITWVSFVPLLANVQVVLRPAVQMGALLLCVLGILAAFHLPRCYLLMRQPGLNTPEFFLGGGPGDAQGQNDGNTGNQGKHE
The experiment in a line: HTS-Sweet: FLIPR calcium fluorometric imaging assay in cells stably expressing the human sweet taste receptor and a promiscuous G protein. The assay is classed as cell-based.
Settings: not given
The method, then: Compound activity (EC50) was determined using an automated fluorometric imaging assay on a FLIPR instrument (Fluorometric […] Plate Reader, Molecular Devices, Sunnyvale, Calif.). Cell stably expressing the human sweet taste receptor and a promiscuous G protein were seeded into 384-well plates (at approximately 40,000 cells per well). Cells were grown for 24 hours at 37° C. Cells were then loaded with the calcium dye Fluo-4AM (Molecular Probes, Eugene, Oreg.), 4 μM in a phosphate buffered saline (D-PBS) (Invitrogen, Carlsbad, Calif.), for 1 hour at room temperature. After replacement with 25 μl D-PBS, stimulation was performed in the FLIPR instrument and at room temperature by the addition of 25 μl D-PBS supplemented with different stimuli at concentrations corresponding to twice the desired final level. Receptor activity was quantified by determining the maximal fluorescence increases (using a 480 nm excitation and 535 nm emission) after normalization to basal fluorescence intensity measured before stimulation.
For dose-responses analysis, stimuli were presented in duplicates at 10 different concentrations ranging from 0.4 μM to 200 μM. EC50 s were determined using a non-linear regression algorithm, where the Hill slope, bottom asymptotes and top asymptotes were allowed to vary.
Consider `C[C@H](CC[C@@H](O[C@@H]1O[C@H](CO[C@H]2O[C@H](CO)[C@@H](O)[C@H](O)[C@H]2O)[C@@H](O)[C@H](O)[C@H]1O[C@@H]1O[C@H](CO)[C@@H](O)[C@H](O)[C@H]1O)C(C)(C)O)C1CC[C@@]2(C)C3CC=C4C(CC[C@H](O[C@@H]5O[C@H](CO)[C@@H](O)[C@H](O)[C@H]5O)C4(C)C)[C@]3(C)[C@H](O)C[C@]12C` (some centres unmarked) [Compound 3], for which the pEC50 was greater than 4.77.
For `C[C@H](CC[C@@H](O[C@@H]1O[C@H](CO[C@H]2O[C@H](CO)[C@@H](O)[C@H](O)[C@H]2O)[C@@H](O)[C@H](O)[C@H]1O[C@@H]1O[C@H](CO)[C@@H](O)[C@H](O)[C@H]1O)C(C)(C)O)C1CC[C@@]2(C)C3CC=C4C(CC[C@H](O[C@@H]5O[C@H](CO[C@H]6O[C@H](CO)[C@@H](O)[C@H](O)[C@H]6O)[C@@H](O)[C@H](O)[C@H]5O)C4(C)C)[C@]3(C)[C@H](O)C[C@]12C` (some centres unmarked) [Compound 4], the pEC50 was greater than 4.77.
`CC(CCC(OC1OC(COC2OC(CO)C(O)C(O)C2O)C(O)C(O)C1OC1OC(CO)C(O)C(O)C1O)C(C)(C)O)C1CCC2(C)C3CC=C4C(CCC(OC5OC(COC6OC(CO)C(O)C(O)C6O)C(O)C(O)C5O)C4(C)C)C3(C)C(O)CC12C` (centres unmarked) [Compound 12]: the pEC50 is 4.52 to 4.77.
The same measure, in the same setting: next, `C[C@H](CC[C@@H](O[C@@H]1O[C@H](CO[C@H]2O[C@H](CO)[C@@H](O)[C@H](O)[C@H]2O)[C@@H](O)[C@H](O)[C@H]1O[C@@H]1O[C@H](CO)[C@@H](O)[C@H](O)[C@H]1O)C(C)(C)O)C1CC[C@@]2(C)C3CC=C4C(CC[C@H](O[C@@H]5O[C@H](CO[C@@H]6O[C@H](CO)[C@@H](O)[C@H](O)[C@H]6O)[C@@H](O)[C@H](O)[C@H]5O)C4(C)C)[C@]3(C)[C@H](O)C[C@]12C` (some centres unmarked) [Compound 23]: greater than 4.77.

Staying with this assay, now noted: FLIPR, Fluo-4AM, 10 concentrations 0.4 μM to 200 μM in duplicates; read-out: Compound EC50s for hT1R2/hT1R3.
For `C[C@H](CC[C@@H](O[C@@H]1O[C@H](CO[C@@H]2O[C@H](CO)[C@@H](O)[C@H](O)[C@H]2O)[C@@H](O)[C@H](O)[C@H]1O[C@@H]1O[C@H](CO)[C@@H](O)[C@H](O)[C@H]1O)C(C)(C)O)C1CC[C@@]2(C)C3CC=C4C(CC[C@H](O[C@@H]5O[C@H](CO[C@H]6O[C@H](CO[C@H]7O[C@@H](CO)[C@H](O)[C@@H](O)[C@@H]7O)[C@@H](O)[C@H](O)[C@H]6O)[C@@H](O)[C@H](O)[C@H]5O)C4(C)C)[C@]3(C)[C@H](O)C[C@]12C` (some centres unmarked) [Compound 2], the pEC50 is 4.52 to 4.77.
As for `C[C@H](CC[C@@H](O[C@@H]1O[C@H](CO[C@H]2O[C@H](CO)[C@@H](O)[C@H](O)[C@H]2O)[C@@H](O)[C@H](O)[C@H]1O[C@@H]1O[C@H](CO)[C@@H](O)[C@H](O)[C@H]1O)C(C)(C)O)C1CC[C@@]2(C)C3CC=C4C(CC[C@H](O[C@@H]5O[C@H](CO)[C@@H](O[C@H]6O[C@H](CO)[C@@H](O)[C@H](O)[C@H]6O)[C@H](O)[C@H]5O)C4(C)C)[C@]3(C)[C@H](O)C[C@]12C` (some centres unmarked) [Compound 5], the pEC50 was 4.52 to 4.77.
On the same count and under the same terms, next, `C[C@H](CC[C@@H](O[C@@H]1O[C@H](CO)[C@@H](O)[C@H](O)[C@H]1O[C@@H]1O[C@H](CO)[C@@H](O[C@H]2O[C@H](CO)[C@@H](O)[C@H](O)[C@H]2O)[C@H](O)[C@H]1O)C(C)(C)O)C1CC[C@@]2(C)C3CC=C4C(CC[C@H](O[C@@H]5O[C@H](CO)[C@@H](O)[C@H](O)[C@H]5O)C4(C)C)[C@]3(C)[C@H](O)C[C@]12C` (some centres unmarked) [Compound 9]: 4.52 to 4.77; `C[C@H](CC[C@@H](O[C@@H]1O[C@H](CO[C@H]2O[C@H](CO)[C@@H](O)[C@H](O)[C@H]2O)[C@@H](O)[C@H](O)[C@H]1O[C@@H]1O[C@H](CO)[C@@H](O)[C@H](O)[C@H]1O)C(C)(C)O)C1CC[C@@]2(C)C3CC=C4C(CC[C@H](O[C@@H]5O[C@H](CO)[C@@H](O)[C@H](O)[C@H]5O)C4(C)C)[C@]3(C)C(=O)C[C@]12C` (some centres unmarked) [Compound 11]: less than 4.52.
With `C[C@H](CC[C@@H](O[C@@H]1O[C@H](CO)[C@@H](O)[C@H](O)[C@H]1O[C@@H]1O[C@H](CO)[C@@H](O[C@@H]2O[C@H](CO)[C@@H](O)[C@H](O)[C@H]2O)[C@H](O)[C@H]1O)C(C)(C)O)C1CC[C@@]2(C)C3CC=C4C(CC[C@H](O[C@@H]5O[C@H](CO)[C@@H](O)[C@H](O)[C@H]5O)C4(C)C)[C@]3(C)[C@H](O)C[C@]12C` (some centres unmarked) [Compound 13], the pEC50 is 4.52 to 4.77.
On the same count and under the same terms, next, `C[C@H](CC[C@@H](O[C@@H]1O[C@H](CO[C@H]2O[C@H](CO)[C@@H](O)[C@H](O)[C@H]2O)[C@@H](O)[C@H](O)[C@H]1O[C@@H]1O[C@H](CO)[C@@H](O[C@H]2O[C@H](CO)[C@@H](O)[C@H](O)[C@H]2O)[C@H](O)[C@H]1O)C(C)(C)O)C1CC[C@@]2(C)C3CC=C4C(CC[C@H](O)C4(C)C)[C@]3(C)[C@H](O)C[C@]12C` (some centres unmarked) [Compound 16]: 4.52 to 4.77; `C[C@H](CC[C@@H](O[C@@H]1O[C@H](CO[C@@H]2O[C@H](CO)[C@@H](O)[C@H](O)[C@H]2O)[C@@H](O[C@@H]2O[C@H](CO)[C@@H](O)[C@H](O)[C@H]2O)[C@H](O)[C@H]1O)C(C)(C)O)C1CC[C@@]2(C)C3CC=C4C(CC[C@H](O[C@@H]5C[C@H](COC6O[C@H](CO)[C@@H](O)[C@H](O)[C@H]6O)[C@@H](O)[C@H](O)[C@H]5O)C4(C)C)[C@]3(C)C(=O)C[C@]12C` (some centres unmarked) [Compound 29]: less than 4.52; `C[C@H](CC[C@@H](O[C@@H]1O[C@H](CO[C@@H]2O[C@H](CO[C@@H]3O[C@H](CO)[C@@H](O)[C@H](O)[C@H]3O)[C@@H](O)[C@H](O)[C@H]2O)[C@@H](O)[C@H](O)[C@H]1O[C@@H]1O[C@H](CO)[C@@H](O)[C@H](O)[C@H]1O)C(C)(C)O)C1CC[C@@]2(C)C3CC=C4C(CC[C@H](O[C@@H]5O[C@H](COC6O[C@H](CO)[C@@H](O)[C@H](O)[C@H]6O)[C@@H](O)[C@H](O)[C@H]5O)C4(C)C)[C@]3(C)[C@H](O)C[C@]12C` (some centres unmarked) [Compound 30]: less than 4.52.
For the compound `C[C@H](CC[C@@H](O[C@@H]1O[C@H](CO[C@@H]2O[C@H](CO)[C@@H](O)[C@H](O)[C@H]2O)[C@@H](O)[C@H](O)[C@H]1O[C@@H]1O[C@H](CO)[C@@H](O)[C@H](O)[C@H]1O)C(C)(C)O)C1CC[C@@]2(C)C3CC=C4C(CC[C@H](O[C@@H]5O[C@H](CO[C@@H]6O[C@H](CO)[C@@H](O)[C@H](O)[C@H]6O)[C@@H](O)[C@H](O)[C@H]5O)C4(C)C)[C@]3(C)C=C[C@]12C` (some centres unmarked) [Compound 31], the pEC50 was less than 4.52.
`C[C@H](CC[C@@H](O[C@@H]1O[C@H](CO)[C@@H](O)[C@H](O)[C@H]1O[C@@H]1O[C@H](CO)[C@@H](O)[C@H](O)[C@H]1O)C(C)(C)O)C1CC[C@@]2(C)C3CC=C4C(CC[C@H](O[C@@H]5O[C@H](CO[C@@H]6O[C@H](CO)[C@@H](O)[C@H](O)[C@H]6O)[C@@H](O)[C@H](O)[C@H]5O[C@H]5O[C@@H](CO)[C@H](O)[C@@H](O)[C@@H]5O)C4(C)C)[C@]3(C)[C@H](O)C[C@]12C` (some centres unmarked) [Compound 32]: the pEC50 was less than 4.52.

The values are drawn from patent publication US11357246B2, “High intensity sweeteners” (Firmenich Incorporated, priority 2015, dated 2022).
